Measurements published in article PMC6278385, “Preclinical Pharmacokinetics of C118P, a Novel Prodrug of Microtubules Inhibitor and Its Metabolite C118 in Mice, Rats, and Dogs” (Molecules, 2018).
Like-named read-outs stand apart in the source and are kept apart here. Values belong to the compound of their own block, whether it stands above or below them.

Key:
[1] = Stability in plasma with EDTA as anticoagulant; type: in vitro ADME
[2] = Tandem two-compartment PK model of C118P and C118; type: in vivo; details: dog; for K12 / K21 / V1: two-compartmental model parameter (Table S1); for K10: two-compartmental model, K10 supposed to be transformation rate of C118P into C118, simulated
From the text: Due to the rapid transformation of C118P into C118, there is no direct way to calculate the rate of transformation, thus a two-compartment model with metabolism involved was developed (Figure S3). The transformation rate from C118P into C118 was simulated by fitting the two-serial data of prodrug C118P and C118 in rats and dogs.
3. The pharmacokinetic profile of C118P and C118 was simulated by two compartmental models. To simplify the model, the excretion rate of C118P from central compartment was supposed to be zero. In this model, both C118P and C118 were described by two-compartmental model, with elimination rate of k(0,3) for C118. The connection between C118P and C118 is by the uniflow of transformation rate of k(3,1) since the metabolism of C118P to C118 is irreversible(Figure S3).
Figure S3. The pharmacokinetic model of C118P and C118 in rat after i.v C118P. ex1: the injection dose of C118P, s1: concentration of C118 in central compartment. s2: concentration of C118 in central compartment, q1 and q3 represent the central compartment of C118P and C118, respectively.
The q2 and q4 represent the peripheral compartment of C118P and C118, respectively. k(0,3) represents the elimination rate of C118 from central compartment. k(3,1) represents the transformation rate of C118P to C118. k(2,1) and k(4,3) represent the distribution rate of C118P and C118 from central compartment to peripheral compartment. k(1,2) and k(3,4) represent the return rate of C118P and C118 from peripheral compartment to central compartment.
For prodrug pharmacokinetic prediction, the transformation of prodrug to the active drug should be studied in different system to get the right data. With the help of modeling, the transformation ratio of C118P to C118 was calculated by a tandem two-compartment model (SAAMII, University of Washington). In simulation study, the initial parameters are very important for accurate prediction.
The initial compartmental model parameters of rat and dog were first evaluated by Winnonlin using two-compartmental model at low dose, with intravenous for C118P and extra vessel for C118 since […]
(1 picture or pasted object on this page, not shown here)
C118 was transformed from C118P. The initial parameters used in the simulation were listed in Table S1. Using these parameters, the simulation of PK profiles of rat and dog are well fit to the data from in vivo at higher dose (Figure S4). The simulation of C118P and C118, the transformation rate of C118P to C118 is calculated and transformation ratio (k) is about 18.3671/h and12.588 1/h for rats and dogs, respectively.
Figure S4. The simulation of PK profile at 20 mg/kg in rat(A) and 6 mg/kg(B) in dog based on initial parameters calculated by Winnonlin. (s1 represent the simulated data for C118 and s2 represent the simulated data for C118P, plasma 1 represent the experimental data for C118 and plasma 2 represent the experimental data for C118P.) […]

[3] = Metabolic stability in liver microsomes; type: in vitro ADME, human
Procedure: The in vitro metabolic stability of C118P and C118 were estimated in mice, rat, dog, monkey, and human liver microsomes (Research Institute for Liver Diseases Co. Ltd (Shanghai, China)). The incubation mixture contains C118P or C118, NADP (1.0 mM), G-6-P (10 mM), PDH (2 units/mL), MgCl2 (10 mM), and liver microsomes (mice, rats, dogs, monkeys, or humans, 1.0 mg protein/mL) in phosphate buffer. A total of 200 μL of the mixture was removed and quenched with 600 μL acetonitrile in an ice bath at 0, 15, 30, 60, 120, and 240 min after the addition of NADPH.
CLint, in vitro (the in vitro intrinsic clearance, Equation (1)) was calculated from the t1/2 of C118 disappearance, where Cprotein is the protein concentration during the incubation, and t1/2 was determined by the slope (k) of the log-linear regression analysis of the concentration versus time profiles; thus, t1/2 = ln2/k. […] The in vivo hepatic clearance (CLH, Equation (3)) was then calculated by using CLint and hepatic blood flow, Q ([…] mL·min^−1·kg^−1 in rats, dogs, monkey, and humans, respectively), in the well-stirred liver model disregarding all binding. The hepatic extraction ratio was calculated as CLH divided by Q. CLint, in vitro = (0.693/t1/2) × (1/Cprotein)(1) CLint = CLint, in vitro × (mg protein/g liver weight) × (gliver weight/kg body weight)(2) CLH = (Q × CLint)/(Q + CLint)(3)

[4] = PK in rats after i.v. C118P; type: in vivo, SD rats; details: plasma; for concentration at 30 s / AUC(0-inf) / half-life / clearance: both sexes, rat; for concentration at 30 s: read-out: C2min (C30s for Rat); for AUC(0-inf) / half-life / clearance: iv
Procedure: The SD rats were supplied by the medical animal experiment center of Chinese People’s Liberation Army Nanjing military region. Twenty-four rats (210–300 g) with half males and half females were divided randomly into four groups. C118P was dissolved in saline to achieve different concentrations for intravenous administration. After fasting overnight, the rats were administered with a single intravenous dose of 5, 10, 20, or 50 mg/kg C118P. Blood samples (approximately 200 μL) were collected in EDTA-coated tubes pre-dose (0), and 30s, 2, 5, 10, 20, 40 min, 1, 2, 4, 8, 12 and 24 h post dose. Plasma was prepared by centrifugation at 8000 rpm for 5 min, and the plasma samples were then prepared and determined by the method described above.
The area under the plasma-concentration-versus-time curve from 0 to infinite (AUC0-inf), the elimination half-life (t1/2), the systemic plasma clearance (CL) and the volume of distribution (V) were calculated by non-compartmental analysis with WinNonlin software v6.3 (Pharsight Corporation, St. Louis, MO 63144, USA) from the plasma concentration data of C118P and C118, respectively. The instantaneous concentrations after intravenous to rats (C30s) or dogs (C2min) were obtained directly from the observed data.

[5] = SD, rats, i.v. C118P 5 mg/kg, n = 6
[6] = SD, rats, i.v. C118P 20 mg/kg, n = 6
[7] = SD, rats, i.v. C118P 50 mg/kg, n = 6
[8] = Sprague-Dawley, rats, i.v. C118P 10 mg/kg, n = 6
[9] = SD, in vivo, rats, i.v. C118P 5 mg/kg, n = 6
[10] = SD, in vivo, rats, i.v. C118P 20 mg/kg, n = 6
[11] = SD, in vivo, rats, i.v. C118P 50 mg/kg, n = 6
[12] = Sprague-Dawley, in vivo, rats, i.v. C118P 10 mg/kg, n = 6

stability in plasma [1]: stable
K12 [2]: 1.3247 h⁻¹
K21 [2]: 0.2110 h⁻¹
V1 [2]: 0.2205 L/kg
K10 [2]: 3.1444 h⁻¹
CLint, in vitro ([3]; human liver microsomes): 58.2 μL·min^−1·mg^−1 Protein
half-life ([3]; human liver microsomes, 1.0 mg protein/mL, C118 disappearance): 11.9 min
CLint ([3]; human, scaled from CLint, in vitro): 47.9 mL/min/kg
Extrapolated CLH ([3]; human, well-stirred liver model): 14.1 mL/min/kg
concentration at 30 s ([4]; SD, intravenous, rats, i.v. C118P 5 mg/kg, n = 6): 1580 ± 318 ng/mL
concentration at 30 s ([4]; SD, intravenous, rats, i.v. C118P 20 mg/kg, n = 6): 7720 ± 2010 ng/mL
concentration at 30 s ([4]; SD, intravenous, rats, i.v. C118P 50 mg/kg, n = 6): 20600 ng/mL
AUC(0-inf) [4, 5]: 741 ± 63.2 ng·h/mL
half-life [4, 5]: 31.2 ± 6 min
AUC(0-inf) [4, 6]: 3750 ± 592 ng·h/mL
half-life [4, 6]: 36 ± 3.6 min
AUC(0-inf) [4, 7]: 9720 ± 1300 ng·h/mL
half-life [4, 7]: 149 ± 75.6 min
clearance ([4]; Sprague-Dawley, in vivo, compared with extrapolated CLH, read-out: Observed CL): 62.9 mL/min/kg
concentration at 30 s ([4]; Sprague-Dawley, intravenous, rats, i.v. C118P 10 mg/kg, n = 6): 3720 ± 974 ng/mL
AUC(0-inf) [4, 8]: 1600 ± 193 ng·h/mL
half-life [4, 8]: 33 ± 7.8 min
SMILES: COc1cc(OC)cc(-c2nc[nH]c2-c2ccc(OC)c(O)c2)c1 [C118]

SMILES: COc1cc(OC)cc(-c2nc[nH]c2-c2ccc(OC)c(OP(=O)([O-])[O-])c2)c1.[Na+].[Na+] [C118P]
stability in plasma [1]: stable
K12 [2]: 1.844 h⁻¹
K21 [2]: 4.727 h⁻¹
V1 [2]: 0.05097 L/kg
K10 [2]: 12.558 h⁻¹
stability in liver microsomes ([3]; human liver microsomes (Figure S1)): quite stable
AUC(0-inf) [4, 9]: 5740 ± 766 ng·h/mL
half-life [4, 9]: 14.4 ± 3 min
clearance ([4]; SD, in vivo, rats, i.v. C118P 5 mg/kg, n = 6, read-out: CL (converted)): 14.7 mL/min/kg
clearance ([4]; SD, in vivo, rats, i.v. C118P 10 mg/kg, n = 6, read-out: CL (converted)): 16.4 mL/min/kg
AUC(0-inf) [4, 10]: 18700 ng·h/mL
half-life [4, 10]: 22.8 ± 6 min
clearance ([4]; SD, in vivo, rats, i.v. C118P 20 mg/kg, n = 6, read-out: CL (converted)): 18.5 mL/min/kg
AUC(0-inf) [4, 11]: 38900 ng·h/mL
half-life [4, 11]: 48 ± 34.2 min
clearance ([4]; SD, in vivo, rats, i.v. C118P 50 mg/kg, n = 6, read-out: CL (converted)): 22.3 mL/min/kg
concentration at 30 s [4, 9]: 75600 ng/mL
concentration at 30 s [4, 10]: 219000 ng/mL
concentration at 30 s [4, 11]: 373000 ng/mL
AUC(0-inf) [4, 12]: 10400 ng·h/mL
half-life [4, 12]: 12.6 ± 3 min
concentration at 30 s [4, 12]: 134000 ng/mL
V ([4]; rats, i.v. C118P 5 mg/kg, n = 6): 0.3025 ± 0.0611 L/kg
V ([4]; rats, i.v. C118P 10 mg/kg, n = 6): 0.2994 ± 0.0676 L/kg
V ([4]; rats, i.v. C118P 20 mg/kg, n = 6): 0.5826 ± 0.1142 L/kg
V ([4]; rats, i.v. C118P 50 mg/kg, n = 6): 1.5022 ± 1.0658 L/kg
